Data published in patent publication US20110091387A1, “METHODS AND COMPOSITIONS FOR REDUCING SKIN DAMAGE” (THE GENERAL HOSPITAL CORPORATION, priority 2007, published 2011).
Where a name gives a salt, the structure may show the parent alone.

The molecules below were run on RhoE promoter (assay: RhoE promoter luc2 luciferase reporter screen for inducers of RhoE expression). Conditions: Table 1; luminescence at 24 hours, two replicates per compound.
Type: cell-based
Description: To isolate compounds that can activate RhoE pathway in keratinocytes and protect against UVB exposure, a robust and sensitive chemical genetics approach was developed for the identification of small molecules that induce RhoE expression. Briefly, a reporter construct was created that included the RhoE promoter operatively linked to the luc2 luciferase reporter gene (FIG. 1A). Stable cell lines were produced that expressed the reporter construct, and the cells were plated in 384 well plates at ˜10,000 cells per well. The library test compounds were added to the plated cells at two replicates per compound, and the cells were incubated with the compounds for 24 hours. Luminescence was measured at 24 hours using a plate reader. The data were analyzed using Spotfire.

Compared with CCOC(=O)C1(O)Oc2cc(OC)cc(OC)c2C(=O)C1c1ccccc1 (stereo not shown) [2-ethoxycarbonyl-2-hydroxy-5,7-dimethoxyisoflavanone], COc1cc(OC)c2c(=O)c(-c3ccccc3)coc2c1 [5,7-dimethoxyisoflavone] is higher in “Composite Z value (induction of RhoE expression)” value (“Composite Z value” below): 2.164 for the first, 3.2977 for the second.

First: O=c1c2ccccc2oc2ccc(O)cc12 [2-hydroxyxanthone]
Second: COc1ccc2oc3ccccc3c(=O)c2c1 [2-methoxyxanthone]
The “Composite Z value” value of the first is lower: 2.2158 for the first, 3.8383 for the second.

Compared with Cc1ccc2cc3c(ccc4ccccc43)c3c2c1CC3 [3-methylcholanthrene], O=C1c2ccccc2-c2cccc3cccc1c23 [Benzanthrone] is higher in “Composite Z value” value: 2.4062 for the first, 2.735 for the second.

Going from COc1ccc(-c2cc(=O)c3ccccc3o2)cc1OC [3′,4′-dimethoxyflavone] to COc1ccccc1-c1cc(=O)c2c(OC)cccc2o1 [5,2′-dimethoxyflavone], the “Composite Z value” value rises from 2.21 to 3.0257.

First: O=C(/C=C/c1ccccc1)c1ccc(O)cc1 [4′-hydroxychalcone]
Second: COc1ccc(C(=O)/C=C/c2ccccc2)cc1 [4′-methoxychalcone]
The “Composite Z value” value of the first is lower: 2.8467 for the first, 3.8036 for the second.

Compared with COc1ccc(-c2cc(=O)c3c(OC)cc(OC)cc3o2)cc1 [5,7,4′-trimethoxyflavone], COc1cc(OC)c2c(=O)cc(-c3ccccc3)oc2c1 [chrysin dimethyl ether] is lower in “Composite Z value” value: 5.4102 for the first, 3.477 for the second.

Compared with COc1ccc(-c2coc3cc(OC)ccc3c2=O)cc1 [7,4′-dimethoxyisoflavone], COc1ccc(-c2coc3cc(O)cc(O)c3c2=O)cc1 [biochanin a] is higher in “Composite Z value” value: 3.0721 for the first, 3.2901 for the second.

Going from COc1ccccc1-c1cc(=O)c2cccc(OC)c2o1 [8,2′-dimethoxyflavone] to O=c1c2ccccc2oc2ccccc12 [Xanthone], the “Composite Z value” value rises from 2.7326 to 3.79.

Compared with COc1ccc(-c2cc(=O)c3c(O)cc(O)cc3o2)cc1 [Acacetin], COc1ccc(-c2cc(=O)c3c(O)cc(O)cc3o2)cc1O [Diosmetin] is higher in “Composite Z value” value: 3.2375 for the first, 4.5672 for the second.

Going from CCCSc1ccc2nc(NC(=O)OC)[nH]c2c1 [Albendazole, reference compound] to CCCOc1ccc2nc(NC(=O)OC)[nH]c2c1 [Oxibendazole, reference compound], the “Composite Z value” value falls from 3.0534 to 2.2003.

First: CCCCOC(=O)c1ccc(O)cc1 [Butylparaben]
Second: Oc1ccc(OCc2ccccc2)cc1 [Monobenzone, reference compound]
The “Composite Z value” value of the first is higher: 2.6043 for the first, 2.1629 for the second.

Going from CC(C)OC(=O)Nc1cccc(Cl)c1 [Chlorpropham] to COC(=O)Nc1nc2ccc(SC(C)C)cc2[nH]1 [Methiazole], the “Composite Z value” value falls from 2.5656 to 2.2516.

Compared with O=c1cc(-c2ccc(O)cc2)oc2cc(O[C@@H]3O[C@H](CO)[C@@H](O)[C@H](O)[C@H]3O)cc(O)c12 [Cosmosiin], O=c1cc(-c2ccc(O)c(O)c2)oc2cc(O)cc(O)c12 [Luteolin] is lower in “Composite Z value” value: 4.8646 for the first, 2.3069 for the second.

Compared with COc1cc(OC)c2c(=O)c(-c3ccc4c(c3)OCO4)coc2c1 [Derrustone], COc1ccc2c(=O)c(-c3cc4c(cc3OC)OCO4)coc2c1 [cuneatin methyl ether] is lower in “Composite Z value” value: 2.3814 for the first, 2.23 for the second.

First: O=C(CC(=O)c1ccccc1)c1ccccc1 [Dibenzoylmethane]
Second: O=C(Nc1ccccc1)Nc1ccccc1 [Diphenylurea]
The “Composite Z value” value of the first is higher: 3.651 for the first, 3.1382 for the second.

Compared with O=c1c2ccccc2[se]n1-c1ccccc1 [Ebselen], CNc1ccccc1C(=O)N1CCc2c([nH]c3ccccc23)C1=O [Rhetsinine] is higher in “Composite Z value” value: 2.3104 for the first, 3.357 for the second.

First: C[C@]12CC[C@H]3C(=CCc4cc(O)ccc43)[C@@H]1CCC2=O [Equilin, reference compound]
Second: Oc1ccc2c(c1)OC[C@H]1c3cc4c(cc3O[C@@H]21)OCO4 [Maackiain]
The “Composite Z value” value of the first is higher: 2.3429 for the first, 2.2116 for the second.

Compared with C=C(C)c1cc2cc(C(C)=O)c(O)cc2o1 [Euparin], COc1ccc(CC(=O)c2ccc(O)cc2O)cc1 [Ononetin] is higher in “Composite Z value” value: 2.4662 for the first, 2.6414 for the second.

First: O=c1c(-c2ccc(O)cc2)coc2cc(O)cc(O)c12 [Genistein]
Second: O=C1C[C@@H](c2ccc(O)cc2)Oc2cc(O)cc(O)c21 [Naringenin]
The “Composite Z value” value of the first is higher: 2.5938 for the first, 2.3231 for the second.

Compared with C=C1C(=O)O[C@@H]2C[C@@]3(C)CCC[C@H](C)C3=C[C@H]12 [Helenine], CC[C@H]1OC(=O)[C@H](C)[C@@H](O[C@H]2C[C@@](C)(OC)[C@@H](O)[C@H](C)O2)[C@H](C)[C@@H](O[C@@H]2O[C@H](C)C[C@H](N(C)C)[C@H]2O)[C@](C)(O)C[C@@H](C)C(=O)[C@H](C)[C@@H](O)[C@]1(C)O [erythromycin stearate, reference compound] is higher in “Composite Z value” value: 2.473 for the first, 3.1488 for the second.

Compared with O=c1cc(-c2cc(O)c(O)c(O)c2)oc2cc(O)cc(O)c12 [Hieracin], COc1cc(O)c2c(=O)c(O)c(-c3ccc(O)c(O)c3)oc2c1 [Rhamnetin] is lower in “Composite Z value” value: 3.8448 for the first, 2.1577 for the second.

First: COc1cc(-c2coc3cc(O[C@@H]4O[C@H](CO)[C@@H](O)[C@H](O)[C@H]4O)c(OC)c(O)c3c2=O)cc(O)c1OC [Iridin]
Second: COc1ccc(-c2coc3cc(OC(C)=O)cc(OC(C)=O)c3c2=O)cc1 [biochanin a diacetate]
The “Composite Z value” value of the first is lower: 2.7194 for the first, 3.6564 for the second.

Compared with CC(C)N(C(=O)CCl)c1ccccc1 [Propachlor], Cl.NNCc1ccccc1 [benzylhydrazine hydrochloride] is lower in “Composite Z value” value: 2.8556 for the first, 2.3759 for the second.

Going from CCN(CC)CCCC(C)Nc1c2ccc(Cl)cc2nc2ccc(OC)cc12 (stereo not shown) [Quinacrine dihydrochloride dihydrate, reference compound] to CCN(CC)CCOc1ccc2c(c1)C(=O)c1cc(OCCN(CC)CC)ccc1-2 [Tilorone, reference compound], the “Composite Z value” value rises from 2.324 to 3.4862.

First: c1ccc2[nH]c(-c3cscn3)nc2c1 [Tiabendazole, reference compound]
Second: NNc1nncc2ccccc12 [hydralazine hydrochloride, reference compound]
The “Composite Z value” value of the first is higher: 3.5924 for the first, 2.3583 for the second.

First: CC1=C(/C=C/C(C)=C/C=C/C(C)=C/C(=O)O)C(C)(C)CCC1 [Tretinoin, reference compound]
Second: COc1cc(O)c(C(=O)/C=C/c2ccccc2)c(OC)c1 [flavokawain b]
The “Composite Z value” value of the first is lower: 2.2603 for the first, 3.604 for the second.

Compared with CC1(C)C=Cc2cc3ccc(=O)oc3cc2O1 [Xanthyletin], COc1ccc(C2CC(=O)c3ccc(OC)cc3O2)cc1 (stereo not shown) [liquiritigenin dimethyl ether] is higher in “Composite Z value” value: 2.6831 for the first, 4.6362 for the second.

Going from COc1ccc(-c2cc(=O)c3c(OC(C)=O)cc(OC(C)=O)cc3o2)cc1 [acacetin diacetate] to CC(=O)Oc1ccc(-c2cc(=O)c3c(OC(C)=O)cc(OC(C)=O)cc3o2)cc1 [apigenin triacetate], the “Composite Z value” value rises from 3.977 to 4.6992.

First: C=CC(C1=CC(=O)C(OC)=CC1=O)c1ccc(O)cc1 (stereo not shown) [dalbergione, 4-methoxy-4′-hydroxy-]
Second: COc1ccc2c(c1)OCC(=Cc1ccc(O)c(O)c1)C2=O [sappanone a 7-methyl ether]
The “Composite Z value” value of the first is lower: 2.3862 for the first, 2.4579 for the second.

First: CC(C)C[C@H](NC(=O)OCC1c2ccccc2-c2ccccc21)C(=O)O [n-(9-fluorenylmethoxycarbonyl)-1-leucine]
Second: COC(=O)C(C)c1ccc(C(=O)c2cccs2)cc1 (stereo not shown) [suprofen methyl ester]
The “Composite Z value” value of the first is lower: 2.8734 for the first, 3.2205 for the second.

Same assay, conditions: Table 2; luminescence at 24 hours, two replicates

Compared with COc1ccc(-c2cc(=O)c3c(OC)cc(OC)cc3o2)cc1 [5,7,4′-trimethoxyflavone], O=c1cc(-c2ccc(O)cc2)oc2cc(O)cc(O)c12 [Apigenin] is lower in “Composite Z” value: 5.4102 for the first, 5.3515 for the second.

In the case of O=c1cc(-c2ccccc2)oc2cc(O)cc(O)c12 [Chrysin], the “Composite Z” value is reported as 5.4731.

Same assay, conditions: Table 2; luminescence at 24 hours, two replicates; listed as apigenin

O=c1cc(-c2ccc(O)cc2)oc2cc(O)cc(O)c12 [Apigenin] was tested, and the “Composite Z” value was 5.8729.
